Measured values as given in the NIST ThermoML archive (doi:10.1016/j.jct.2016.03.026).

Assay: xn = mol fraction of the nth substance listed
Conditions: Fluid (supercritical or subcritical phases); for mass density: Vibrating tube method; for speed of sound: Frequency=5 MHz, Pulse-echo method

O=C=O [carbon dioxide] + CO
Conditions	mass density [kg/m3]	speed of sound [m/s]
263.15 K, 19700 kPa, x1 = 0.97	1052.08	–
263.15 K, 19725 kPa, x1 = 0.97	1052.13	–
263.15 K, 19750 kPa, x1 = 0.97	1052.26	–
263.15 K, 19775 kPa, x1 = 0.97	1052.28	–
263.15 K, 19800 kPa, x1 = 0.97	1052.34	–
263.15 K, 19825 kPa, x1 = 0.97	1052.45	–
263.15 K, 19850 kPa, x1 = 0.97	1052.5	–
263.15 K, 19875 kPa, x1 = 0.97	1052.59	–
263.15 K, 19900 kPa, x1 = 0.97	1052.67	–
263.15 K, 19925 kPa, x1 = 0.97	1052.75	–
263.15 K, 19950 kPa, x1 = 0.97	1052.83	–
263.15 K, 19975 kPa, x1 = 0.97	1052.91	–
263.15 K, 20000 kPa, x1 = 0.97	1052.99	–
263.16 K, 3280 kPa, x1 = 0.97	–	626.2
263.16 K, 3800 kPa, x1 = 0.97	–	633.5
263.16 K, 5050 kPa, x1 = 0.97	–	649.7
263.16 K, 6020 kPa, x1 = 0.97	–	661.8
263.16 K, 6170 kPa, x1 = 0.97	–	664.3
263.16 K, 8100 kPa, x1 = 0.97	–	687.5
263.16 K, 10020 kPa, x1 = 0.97	–	706.8
263.16 K, 14960 kPa, x1 = 0.97	–	752.4
263.16 K, 19890 kPa, x1 = 0.97	–	792.8
263.16 K, 24920 kPa, x1 = 0.97	–	829.4
263.16 K, 29960 kPa, x1 = 0.97	–	862.5
263.16 K, 34890 kPa, x1 = 0.97	–	892.6
263.16 K, 39940 kPa, x1 = 0.97	–	921
263.16 K, 44890 kPa, x1 = 0.97	–	947
263.16 K, 49990 kPa, x1 = 0.97	–	972.3
263.16 K, 54910 kPa, x1 = 0.97	–	995.6
263.16 K, 60010 kPa, x1 = 0.97	–	1018.3
263.16 K, 65090 kPa, x1 = 0.97	–	1039.8
263.16 K, 69970 kPa, x1 = 0.97	–	1059.9
263.16 K, 75000 kPa, x1 = 0.97	–	1079.5
263.16 K, 80150 kPa, x1 = 0.97	–	1098.9
263.16 K, 90130 kPa, x1 = 0.97	–	1134.4
263.16 K, 100140 kPa, x1 = 0.97	–	1168
263.16 K, 110060 kPa, x1 = 0.97	–	1199.3
263.16 K, 119960 kPa, x1 = 0.97	–	1228.9
263.16 K, 140000 kPa, x1 = 0.97	–	1284.7
263.16 K, 159900 kPa, x1 = 0.97	–	1335.8
263.16 K, 179990 kPa, x1 = 0.97	–	1383.3
263.16 K, 194490 kPa, x1 = 0.97	–	1415.5
263.18 K, 6060 kPa, x1 = 0.7534	–	735.8
263.18 K, 9710 kPa, x1 = 0.7534	–	770.9
263.18 K, 14730 kPa, x1 = 0.7534	–	813.5
263.18 K, 14950 kPa, x1 = 0.9803	–	747.6
263.18 K, 20160 kPa, x1 = 0.7534	–	854.1
263.18 K, 24940 kPa, x1 = 0.7534	–	886.4
263.18 K, 30090 kPa, x1 = 0.7534	–	918.5
263.18 K, 34860 kPa, x1 = 0.9803	–	887.4
263.18 K, 35000 kPa, x1 = 0.7534	–	946.9
263.18 K, 39910 kPa, x1 = 0.9803	–	916.3
263.18 K, 40020 kPa, x1 = 0.7534	–	974
263.18 K, 44820 kPa, x1 = 0.7534	–	998.5
263.18 K, 44980 kPa, x1 = 0.9803	–	943.5
263.18 K, 49950 kPa, x1 = 0.7534	–	1023.2
263.18 K, 50170 kPa, x1 = 0.9803	–	969
263.18 K, 55000 kPa, x1 = 0.9803	–	992.2
263.18 K, 55090 kPa, x1 = 0.7534	–	1046.8
263.18 K, 59880 kPa, x1 = 0.7534	–	1067.8
263.18 K, 60140 kPa, x1 = 0.9803	–	1015.5
263.18 K, 64760 kPa, x1 = 0.9803	–	1035.7
263.18 K, 64880 kPa, x1 = 0.7534	–	1088.8
263.18 K, 70160 kPa, x1 = 0.9803	–	1058.2
263.18 K, 70360 kPa, x1 = 0.7534	–	1110.8
263.18 K, 75340 kPa, x1 = 0.7534	–	1130
263.18 K, 75410 kPa, x1 = 0.9803	–	1078.8
263.18 K, 79750 kPa, x1 = 0.9803	–	1095.2
263.18 K, 80260 kPa, x1 = 0.7534	–	1148.4
263.18 K, 89760 kPa, x1 = 0.7534	–	1182.3
263.18 K, 89940 kPa, x1 = 0.9803	–	1132.1
263.18 K, 99680 kPa, x1 = 0.9803	–	1165
263.18 K, 100040 kPa, x1 = 0.7534	–	1216.8
263.18 K, 109950 kPa, x1 = 0.9803	–	1197.7
263.18 K, 110590 kPa, x1 = 0.7534	–	1250.3
263.18 K, 119810 kPa, x1 = 0.7534	–	1278.1
263.18 K, 120700 kPa, x1 = 0.9803	–	1230.1
263.18 K, 140780 kPa, x1 = 0.9803	–	1286.1
263.18 K, 141280 kPa, x1 = 0.7534	–	1338.3
263.18 K, 159890 kPa, x1 = 0.7534	–	1386.5
263.18 K, 160950 kPa, x1 = 0.9803	–	1337.6
263.18 K, 179550 kPa, x1 = 0.7534	–	1433.7
263.18 K, 179550 kPa, x1 = 0.9803	–	1382.1
263.19 K, 6000 kPa, x1 = 0.8502	–	691.2
263.19 K, 9880 kPa, x1 = 0.8502	–	731.2
263.19 K, 14650 kPa, x1 = 0.8502	–	773.8
263.19 K, 19850 kPa, x1 = 0.8502	–	814.7
263.19 K, 24990 kPa, x1 = 0.8502	–	850.9
263.19 K, 29690 kPa, x1 = 0.8502	–	881.1
263.19 K, 35020 kPa, x1 = 0.8502	–	912.8
263.19 K, 40080 kPa, x1 = 0.8502	–	940.7
263.19 K, 44910 kPa, x1 = 0.8502	–	965.8
263.19 K, 50170 kPa, x1 = 0.8502	–	991.7
263.19 K, 55230 kPa, x1 = 0.8502	–	1015.1
263.19 K, 60100 kPa, x1 = 0.8502	–	1036.7
263.19 K, 64650 kPa, x1 = 0.8502	–	1056
263.19 K, 70030 kPa, x1 = 0.8502	–	1078
263.19 K, 74380 kPa, x1 = 0.8502	–	1095.2
263.19 K, 80050 kPa, x1 = 0.8502	–	1116.4
263.19 K, 90050 kPa, x1 = 0.8502	–	1152.6
263.19 K, 100540 kPa, x1 = 0.8502	–	1187.6
263.19 K, 110230 kPa, x1 = 0.8502	–	1218.2
263.19 K, 120050 kPa, x1 = 0.8502	–	1247.8
263.19 K, 140150 kPa, x1 = 0.8502	–	1303.4
263.19 K, 150270 kPa, x1 = 0.8502	–	1329.1
273.15 K, 4600 kPa, x1 = 0.97	940.38	–
273.15 K, 4625 kPa, x1 = 0.97	940.6	–
273.15 K, 4650 kPa, x1 = 0.97	940.77	–
273.15 K, 4675 kPa, x1 = 0.97	941.01	–
273.15 K, 4700 kPa, x1 = 0.97	941.48	–
273.15 K, 4725 kPa, x1 = 0.97	941.61	–
273.15 K, 4750 kPa, x1 = 0.97	941.7	–
273.15 K, 4775 kPa, x1 = 0.97	942	–
273.15 K, 4800 kPa, x1 = 0.97	942.41	–
273.15 K, 4825 kPa, x1 = 0.97	942.58	–
273.15 K, 4850 kPa, x1 = 0.97	942.76	–
273.15 K, 4875 kPa, x1 = 0.97	942.95	–
273.15 K, 4900 kPa, x1 = 0.97	943.14	–
273.15 K, 4925 kPa, x1 = 0.97	943.32	–
273.15 K, 4950 kPa, x1 = 0.97	943.48	–
273.15 K, 4975 kPa, x1 = 0.97	943.65	–
273.15 K, 5000 kPa, x1 = 0.97	–	570.5
